Measurements published in patent publication US20220354805A1, “Cannabidiol (CBD) as Chemical for Treating Aging-related Degenerative Diseases and Promoting Health Aging” (Hemix Biotech Limited, priority 2021, published 2022).

Assays:
[1] = test system: wildtype and LMNA^G609G/G609G MEFs; test: Cell proliferation rate (population doubling level, PDL) of MEFs; assay type: cell-based, mouse
Excerpt: In the step of isolating mouse embryo fibroblasts (MEFs), heterozygous (LMNA^G609G/+) mice were set for mating. The date of pregnancy of mice was identified by checking for vaginal plug in the morning following the day of mating. If the vaginal plug was found, the mouse was considered to be pregnant for 0.5 days (E0.5). When the embryos reached E12.5 to E13.5, the pregnant mice were sacrificed, and the embryos were isolated from the mice inside tissue culture hood using sterile utensils. The embryos were placed in phosphate buffered saline (PBS). Their head and liver were removed. A portion of the head was used for genotyping to identify the genotype of each embryo. The body of each embryo was transferred to 1mL of 0.1% Trypsin-EDTA solution in a well of 12-well plate. Using sterile scissors, embryos were cut into small pieces. The 12-well plate was then placed in a 37° C. incubator for 10 minutes. Followed by vigorous pipetting of the embryos in Trypsin-EDTA solution until the embryos wholly dissolved into the solution. The 12-well plate was then placed in 37° C. incubator for 5 minutes. The homogenized solution was then transferred to 9 mL of Gibco's High Glucose Dulbecco's Modified Eagle's Medium (DMEM) supplemented with sodium bicarbonate (3.7 g/L), HEPES (6 g/L), 10% fetal bovine serum (FBS) and penicillin-streptomycin (100 units/mL). The isolated MEFs were considered to be at passage 0 (P0). P3 MEFs were used in experiments as they have optimal cellular responses to stimuli. […]
In the step of determining the cell's proliferation rate and optimal concentration, primary mouse embryonic fibroblasts (MEFs) at passage 3 were counted by using LUNA-II Automated Cell Counter. […] After 4-day and 8-day treatment, the cells were counted again using LUNA-II Automated Cell Counter. The population doubling level (PDL) which reflects the proliferation rate of cells was calculated by the formula: n=3.32×(logUCY−logI)+X, where n=the PDL number, UCY=the cell yield at that time point, I=the initial cell number, and X=the doubling level of the cells used to initiate the subculture being quantitated.

LMNA^G609G/G609G MEFs = test: RNA sequencing of differentially expressed genes in MEFs; assay type: cell-based, mouse; conditions: 10 μM CBD, 4 days
Description: Primary mouse embryonic fibroblasts (MEFs) at passage 3 were seeded and cultured in 10-cm dish and treated with CBD for 4 days. The cells were washed twice with ice-cold phosphate buffered saline (PBS), and 1 mL TRIzol was added. After incubation at room temperature for 5 minutes, the samples were collected into Eppendorf tubes. The supernatants were collected to Eppendorf tubes. 200 μl of chloroform was added to each sample, and the tubes were shaken vigorously by hand for 15 seconds. The samples were incubated at room temperature for 5 minutes and then centrifuged at 4° C. at 12000 rcf for 15 minutes. After centrifugation, the solution was separated into 3 layers. 450 μl of the clear top layer was collected, and 500 μl of isopropanol was added. […] The RNA quantitation was done using Nanodrop and Agilent 2100 Bioanalyzer. The RNA integrity was measured using Agilent 2100 Bioanalyzer. The RNA purity was measured using agarose gel electrophoresis and Agilent 2100 Bioanalyzer. […]
Illumina sequencing system was used for paired-end reads of read lengths PE150. […] The results were validated by quantitative polymerase chain reaction (qPCR). […] The concentration of RNA was measured by nanodrop. […] Then the samples were ready for qPCR. […] The delta-delta-ct value was calculated by the qPCR machine based on the signal of target genes normalized with housekeeping genes.

[2] = test system: p21, BCL-w, BCL-xL, MCL-1, TRIB3, p-akt in MSCs; test: Western blotting in irradiated and non-irradiated MSCs; assay type: cell-based, human; conditions: 6-hour 10 μM CBD
Description: FIG. 12a-b illustrates the results of senolytic effect of CBD in mesenchymal stem cells (MSCs) upon irradiation induced senescence.
The relative cell viability was calculated by normalizing each sample to non-irradiated control sample. […] As CBD selectively killed senescent MSCs while keeping proliferating MSCs unharmed, it was discovered to be a novel senolytic. Referring to FIG. 12b, Western blotting was carried to investigate the mechanism behind CBD's senolytic effect. […] While as proliferating and senescent MSCs responded differently in phosphorylated akt level.

## C=C(C)[C@@H]1CCC(C)=C[C@H]1c1c(O)cc(CCCCC)cc1O [CBD, Cannabidiol]
[1]; 10 μM CBD, 4 and 8 days of treatment
  effect on PDL: increased the PDL to the greatest extent
[1]; 50 μM CBD, 4 days
  effect on PDL (toxicity effect): decrease in PDL
[1]; MEFs, 4 and 8 days of treatment
  optimal concentration (PDL): 10 µM
LMNA^G609G/G609G MEFs
  differentially expressed genes restored to normal levels: 1066 out of 1363
  share of differentially expressed genes restored to normal levels: 78%
[2]; irradiated MSCs
  BCL-w level: downregulated
  BCL-xL level: downregulated
  MCL-1 level: downregulated
  p21 level: significantly downregulated
[2]; irradiated senescent MSCs
  TRIB3 expression level (downregulated in senescent MSCs): rescued
[2]; non-irradiated MSCs
  p-akt level: significantly upregulated
